Where “and” joins values, the source holds several entries; their conditions need not be identical. Equal values may be shown once.
What was measured:
[1] = Rapid solvent extraction screen of coated specimens (water, 50% MeOH, 100% MeOH); format: physicochemical
Experimental: (§1) Two experimental protocols were used to evaluate aqueous release and the extent of active retention. The first protocol was a rapid solvent extraction screen that involved dipping the coated specimens sequentially into vials containing 35 ml water for 1, 1, 5, and 10 minutes, then 50% MeOH for 10 minutes, and 100% MeOH for 24 hours. This protocol provided a rapid comparison of water soluble and entrained, but releasable, active fractions. The second protocol was to assess release rates based on simulated precipitation/rainfall conditions. This protocol involved maintaining test samples in successive 35 ml volumes of water for 24-hour periods for up to […], providing a cumulative daily release rate from dried films. This water extraction period was followed by a single extraction in 100% MeOH for 24 and 48 hrs to determine residual/entrained or solvent removable active. The aqueous leach procedure is considered extreme in simulating intermittent daily rainfalls of varying intensity, but does provide the rates of release for comparative purposes.
The influence of formulation factors on cyproconazole release and entrainment from aqueous solutions containing 0.2% EtOH without latex (FIG. 1A) was compared to the subsequent EtOH studies with latex. […] This would be expected to represent the relative solubility and release of active, and likely dependent on water solubility of the active.
To determine the influence of latex on cyproconazole release, cyproconazole was first dissolved in ethanol and added to 2% latex solutions to assess the effects on cyproconazole binding with latex using solvent extractions (FIG. 1A).
The first step was to determine the solvent extractability of the non-latex formulations. This was based on readily soluble (water, 17 minutes), easily soluble (50% MeOH, 10 minutes), and relatively non-water soluble (100% MeOH, 24 hr) fractions of the formulations (FIG. 3).
A total of nine commercial surfactants (Table 1) were compared for relative entrainment of cyproconazole in latex, based on the percent of active contained in the 100% MeOH fraction (FIG. 5).
The same solvent extraction protocol was used to evaluate 2 other fungicides (chlorothalonil and spiroxamine) with differing chemistries (water solubility and solvent solubility). These were evaluated using the same solvent extraction protocol. The three surfactants that worked best with cyproconazole were used for these actives.

[2] = Simulated rainfall / sequential aqueous leaching of dried films; format: physicochemical; design: depletion of supplied active by aqueous extraction / release rate, % of supplied active: concentration or dose not given beside the values; conditions: for release rate of active: FIG. 10; for release rate, % of supplied active: FIG. 8; for recoverable active released to water: FIG. 9
Experimental: as §1
The solvent extraction method used above represents a rapid screen for the comparative entrainment behavior of actives and surfactants in the formulated latex system. To address the problem of foliar retention and longevity of actives using a single field application is more a function of rainfall frequency and intensity. To better understand this process under laboratory conditions, we employed a continuous/sequential aqueous (pH 6.0-6.8) leaching process, with periodic sampling and replacement of the solution over periods up to 288 hrs. This is a rather harsh leaching process, but is more representative than the water/MeOH solvent extraction procedure used for screening.
In the simulated rainfall study, we compared the aqueous extraction patterns for cyproconazole at 0.06% with 0.24% EtOH (1×) added to latex (with no surfactant), cyproconazole with […] and 0.05% PP912T added to latex, and cyproconazole with 1% EtOH (4×) and 0.05% PP912T added to latex. This combination was designed to determine formulation variables including surfactant and increased EtOH.
Aqueous extraction of formulations containing chlorothalonil and spiroxamine with latex without surfactant and with PP912T, AU-398 and AU-391A were compared to evaluate long term extraction profiles and residual active after 144 hrs of extraction, sampled at 24 hr intervals.

[3] = EtOH printed for cyproconazole only; cited from earlier work
[4] = aqueous 0.2% EtOH, without latex, FIG. 1A

SMILES: N#Cc1c(Cl)c(Cl)c(Cl)c(C#N)c1Cl [chlorothalonil]
- 100% MeOH retention compared to no surfactant ([1]; latex, with PP912T and AU-398, FIG. 6): increase
- release rate of active ([2]; latex alone, at 6 days): 63%
- release rate of active ([2]; latex with surfactants, 6 days): 80-88%
- active remained after extraction ([2]; without surfactant, after 6 days of extraction, FIG. 11): 16%
- solvent solubility [3]: 10000 µg/mL

SMILES: CC(C1CC1)C(O)(Cn1cncn1)c1ccc(Cl)cc1 (centres unmarked) [cyproconazole]
- 50% MeOH fraction of active [1, 4]: 68%
- 100% MeOH fraction of active [1, 4]: 13.5% and 13%
- water extractable fraction of active [1, 4]: 18.5%
- 100% MeOH fraction of active ([1]; dissolved in ethanol, added to 2% latex solution, FIG. 1A): 32%
- release rate, % of supplied active ([2]; latex with AU-391A, at 6 days): 60%
- release rate, % of supplied active ([2]; latex with AU-398, at 6 days): 50%
- release rate, % of supplied active ([2]; latex with PP912T, at 6 days): 73%
- depletion of supplied active by aqueous extraction ([2]; latex with surfactant PP912T, at 288 days, FIG. 7): 90%
- time to attain 90% loss to water ([2]; latex/EtOH, FIG. 1B): 12 days
- time at which aqueous loss of supplied active was 90% ([2]; without latex, FIG. 1B): 2.5 days

SMILES: CCCN(CC)CC1COC2(CCC(C(C)(C)C)CC2)O1 (centres unmarked) [spiroxamine]
- release to water compared to the no-surfactant control ([1]; latex, with PP912T, AU-398 and AU-391A, FIG. 6): increased release
- recoverable active released to water ([2]; latex alone, 144 hr extraction): 85%
- recoverable active released to water ([2]; latex plus AU-391A, 144 hr extraction): 85%
- recoverable active released to water ([2]; latex plus AU-398, 144 hr extraction): 50%
- recoverable active released to water ([2]; latex plus PP912T, 144 hr extraction): 50%
- effect on release compared to latex alone ([2]; latex with AU-391A): no effect
- release rate compared to latex alone ([2]; latex with PP912T and AU-398): substantial reduction
- active released ([2]; with latex, without surfactant, 6 days extraction, FIG. 13): 94%
